Reference: patent US12622914B2, “Pharmaceutical rectal suppository compositions of 6-thioguanine, methods of treatment and/or methods of manufacturing” (Douglas Pharmaceuticals Ltd., priority 2023, dated 2026)

Assays:
induced colitis = conditions: mice lacking the enzyme HPRT, treatment with 6-thioguanine; cited from earlier work
[1] = Particle size distribution (Malvern Mastersizer 3000); format: physicochemical; conditions: dispersed in n-heptane containing 0.1% span 80 pre-saturated with 6-thioguanine
Protocol: The particles size distribution of the API alone and in the rectal suppository formulations was measured using a Malvern Mastersizer 3000 (Hydro SM). The samples were dispersed in n-heptane containing 0.1% span 80 pre-saturated with 6-thioguanine (to reduce any dissolution of the 6-thioguanine particles in the samples).

D10 [1] | D50 [1] | D90 [1] | D10 ([1]; listed as Batch C) | D50 ([1]; listed as Batch C) | D90 ([1]; listed as Batch C) | Structure (SMILES) | reduction in induced colitis (induced colitis)
– | – | – | – | – | – | Nc1nc(=S)c2[nH]cnc2[nH]1 [6-thioguanine, 2-amino-1H-purine-6(7H)-thione] | rapid and appreciable reduction in induced colitis
5.3 μm | 69.1 μm | 267.0 μm | – | – | – | Nc1nc(=S)c2[nH]cnc2[nH]1 [B, 6-thioguanine] | –
5.4 μm | 66.8 μm | 261.0 μm | – | – | – | Nc1nc(=S)c2[nH]cnc2[nH]1 [Sample A, 6-thioguanine] | –
2.9 μm | 9.0 μm | 151.0 μm | 2.9 μm | 9.0 μm | 151.0 μm | Nc1nc(=S)c2[nH]cnc2[nH]1 [Sample C, 6-thioguanine] | –
